Key:
[1] = Serum chemistry for liver function after 1,25(OH)2D3 treatment; assay type: in vivo, rat; conditions: fifth day after 2.56 nmol/kg/day i.p. for 4 days, n = 3
Procedure: Male Sprague-Dawley (SD) rats (8 weeks, 260–280 g) were purchased from Nara Biotech Co. (Seoul, Korea). Animals were maintained in cages under controlled conditions under a 12-h dark/light cycle with free access to food and tap water, acclimated for at least five days in the laboratory before experiments, and allocated to a control group or 1,25(OH)2D3-treated group. The 1,25(OH)2D3 dosing solution was prepared by diluting 1,25(OH)2D3 in ethanol with 5 mL of corn oil (2.56 nmol/mL of final concentration). The dosing solution for the control group was prepared but the 1,25(OH)2D3 was omitted. The dosing solutions were administered intraperitoneally to rats at a dose of 1 mL/kg/day (2.56 nmol/kg/day as 1,25(OH)2D3) over four consecutive days. On the fifth day, rats were used for pharmacokinetic study.
Rat serum was obtained from whole blood on the fifth day after the 1,25(OH)2D3 treatment. The assay of total protein, albumin, serum glutamic oxaloacetic transaminase (sGOT), and serum glutamic pyruvic transaminase (sGPT) was performed by Green Cross Reference Laboratory (Seoul, Korea).

liver tissue = assay: Liver histology (H&E) after 1,25(OH)2D3 treatment; assay type: in vivo, rat; conditions: H&E sections after four days of treatment
Procedure: (§1) Male Sprague-Dawley (SD) rats (8 weeks, 260–280 g) were purchased from Nara Biotech Co. (Seoul, Korea). […] The dosing solution for the control group was prepared but the 1,25(OH)2D3 was omitted. […] On the fifth day, rats were used for pharmacokinetic study.

hepatic Cyp1a2 mRNA = assay: Hepatic mRNA expression by qPCR; assay type: in vivo, rat; conditions: 2.56 nmol/kg/day i.p. for 4 days, n = 4-5
Procedure: as §1
(§2) Collected livers were frozen immediately with liquid nitrogen and stored at −80 °C. Trizol reagent in RNAiso Plus (Takara Bio, Inc., Shiga, Japan) was used to extract RNA from 100-mg tissue homogenates according to the manufacturer’s protocol. After purities and total RNA concentrations extracted from liver samples were determined at a wavelength of 260/280 nm with a Nanodrop 2000c spectrophotometer (Thermo Scientific, Waltham, MA, USA), synthesis of cDNA was processed from 1 μg of total RNA using the following conditions: incubation at 50 °C for 1 h, inactivation at 95 °C for 5 min, and cooling to 4 °C. The synthesized cDNA was then subjected to qPCR assays using SYBR® Premix Ex TagTM on Stratagene Mx3005P (Agilent Technologies, Boblingen, Germany) using the following conditions: 95 °C for 10 min and 40 cycles of 95 °C for 15 s and 55 °C for 30 s. A “Comparative Quantitation” mode was selected, and fold expressions were calculated using the delta-delta method 2^−(△△Ct). GAPDH was used as the internal reference gene for normalization. The forward and reverse primers used for qPCR analysis are listed in Supplementary Table S1 [2, 25, 28, 29].

hepatic Cyp2b1 mRNA = assay: Hepatic mRNA expression by qPCR; assay type: in vivo, rat; conditions: 2.56 nmol/kg/day i.p. for 4 days, n = 4-5, p = 0.006
Procedure: as §1, §2

hepatic Cyp2c11 mRNA = assay: Hepatic mRNA expression by qPCR; assay type: in vivo, rat; conditions: 2.56 nmol/kg/day i.p. for 4 days, n = 4-5, p = 0.001
Procedure: as §1, §2

hepatic Cyp2c6 mRNA = assay: Hepatic mRNA expression by qPCR; assay type: in vivo, rat; conditions: 2.56 nmol/kg/day i.p. for 4 days, n = 4-5
Procedure: as §1, §2

hepatic Cyp2d2 mRNA = assay: Hepatic mRNA expression by qPCR; assay type: in vivo, rat; conditions: 2.56 nmol/kg/day i.p. for 4 days, n = 4-5
Procedure: as §1, §2

hepatic Ugt1a1 mRNA = assay: Hepatic mRNA expression by qPCR; assay type: in vivo, rat; conditions: 2.56 nmol/kg/day i.p. for 4 days, n = 4-5
Procedure: as §1, §2

hepatic Ugt1a6 mRNA = assay: Hepatic mRNA expression by qPCR; assay type: in vivo, rat; conditions: 2.56 nmol/kg/day i.p. for 4 days, n = 4-5
Procedure: as §1, §2

hepatic Ugt1a7 mRNA = assay: Hepatic mRNA expression by qPCR; assay type: in vivo, rat; conditions: 2.56 nmol/kg/day i.p. for 4 days, n = 4-5
Procedure: as §1, §2

hepatic Ugt1a8 mRNA = assay: Hepatic mRNA expression by qPCR; assay type: in vivo, rat; conditions: 2.56 nmol/kg/day i.p. for 4 days, n = 4-5
Procedure: as §1, §2

hepatic Ugt2b1 mRNA = assay: Hepatic mRNA expression by qPCR; assay type: in vivo, rat; conditions: 2.56 nmol/kg/day i.p. for 4 days, n = 4-5
Procedure: as §1, §2

hepatic Ugt2b3 mRNA = assay: Hepatic mRNA expression by qPCR; assay type: in vivo, rat; conditions: 2.56 nmol/kg/day i.p. for 4 days, n = 4-5
Procedure: as §1, §2

hepatic Cyp2b1 protein = assay: Hepatic protein expression by Western blotting; assay type: in vivo, rat; conditions: 2.56 nmol/kg/day i.p. for 4 days, n = 5, p = 0.0006
Procedure: (§3) (Seoul, Korea). […] On the fifth day, rats were used for pharmacokinetic study. For protein extraction, the rat liver tissues were homogenized in RIPA buffer (#89900, ThermoFisher Scientific, Waltham, MA, USA) with protease/phosphatase inhibitors using a Diax 900 homogenizer. The homogenized liver samples were incubated in ice for 30 min (for complete lysis) with vortexing every 5 min, and then centrifuged at 14,000× g for 30 min. The supernatants were collected and diluted by 10 times. The protein levels were quantified using the BCA Protein Assay Kit (#23227, ThermoFisher Scientific, Waltham, MA, USA) with bovine serum albumin (BSA) standards. Total protein lysates were subjected to Western blot analysis. Lysates were mixed with 2X Laemmli buffer (Bio-Rad) supplemented with β-mercaptoethanol (Bio-Rad) and boiled for 5 min. […] Immunoblotting was performed with the following antibodies: rabbit CYP2C11 antibody (#ab3571, Abcam, Cambridge, UK), rabbit UGT1A6 antibody (#ab157476, Abcam, Cambridge, UK) and mouse CYP2B1/B2 antibody (#sc-53244, Santa Cruz Biotechnology, Dallas, TX, USA) and HRP-conjugated β-actin mouse antibody (Sigma; cat#A3854; 1:10,000). The following secondary antibodies were used: HRP-conjugated goat antibody to mouse IgG (Genetex; cat# GTX-213111-01, 1:5000), HRP-conjugated goat antibody to rabbit IgG (Genetex; cat# GTX-213110-01; 1:5000). Then, the bands were visualized via chemiluminescence (#34577, ThermoFisher Scientific, Waltham, MA, USA). Densitometric analysis of the bands was performed using ImageJ software (NIH; rsb.info.nih.gov/ij).

hepatic Cyp2b2 protein = assay: Hepatic protein expression by Western blotting; assay type: in vivo, rat; conditions: 2.56 nmol/kg/day i.p. for 4 days, n = 5, p = 0.1728
Procedure: as §3

hepatic Cyp2c11 protein = assay: Hepatic protein expression by Western blotting; assay type: in vivo, rat; conditions: 2.56 nmol/kg/day i.p. for 4 days, n = 5, p = 0.0001
Procedure: as §3

hepatic Ugt1a6 protein = assay: Hepatic protein expression by Western blotting; assay type: in vivo, rat; conditions: 2.56 nmol/kg/day i.p. for 4 days, n = 5, p = 0.5192
Procedure: as §1

[2] = substrate: CCCCNC(=O)NS(=O)(=O)c1ccc(C)cc1
[3] = substrate: CC(NC(C)(C)C)C(=O)c1cccc(Cl)c1

C=C1/C(=C\C=C2/CCC[C@]3(C)[C@@H]([C@H](C)CCCC(C)(C)O)CC[C@@H]23)C[C@@H](O)C[C@@H]1O [1,25(OH)2D3, 1α,25-dihydroxyvitamin D3]
Albumin [1]: 3.97 ± 0.15 g/dL
Total protein [1]: 5.73 ± 0.25 g/dL
sGOT [1]: 158 ± 35 IU/L
sGPT [1]: 22.7 ± 3.2 IU/L
Damage to liver tissue (histology) (liver tissue): no apparent evidence of damage to liver tissue
mRNA expression of hepatic Cyp1a2 vs control rats (hepatic Cyp1a2 mRNA): no significant differences
mRNA expression of hepatic Cyp2b1 vs control rats (hepatic Cyp2b1 mRNA): significantly lower
mRNA expression of hepatic Cyp2c11 vs control rats (hepatic Cyp2c11 mRNA): significantly lower
mRNA expression of hepatic Cyp2c6 vs control rats (hepatic Cyp2c6 mRNA): no significant differences
mRNA expression of hepatic Cyp2d2 vs control rats (hepatic Cyp2d2 mRNA): no significant differences
mRNA expression of hepatic Ugt1a1 vs control rats (hepatic Ugt1a1 mRNA): no significant differences
mRNA expression of hepatic Ugt1a6 vs control rats (hepatic Ugt1a6 mRNA): significantly lower
mRNA expression of hepatic Ugt1a7 vs control rats (hepatic Ugt1a7 mRNA): no significant differences
mRNA expression of hepatic Ugt1a8 vs control rats (hepatic Ugt1a8 mRNA): no significant differences
mRNA expression of hepatic Ugt2b1 vs control rats (hepatic Ugt2b1 mRNA): no significant differences
mRNA expression of hepatic Ugt2b3 vs control rats (hepatic Ugt2b3 mRNA): no significant differences
Hepatic Cyp2b1 protein expression vs control rats (hepatic Cyp2b1 protein): significantly decreased
Hepatic Cyp2b2 protein expression vs control rats (hepatic Cyp2b2 protein): lower, but this difference is not significant
Hepatic Cyp2c11 protein level vs control rats (hepatic Cyp2c11 protein): significantly lower
Hepatic Ugt1a6 protein expression vs control rats (hepatic Ugt1a6 protein): remained unchanged

B1: Cyp2c11 (Rattus norvegicus) (protein)
chain: MDPVLVLVLTLSSLLLLSLWRQSFGRGKLPPGPTPLPIIGNTLQIYMKDIGQSIKKFSKVYGPIFTLYLGMKPFVVLHGYEAVKEALVDLGEEFSGRGSFPVSERVNKGLGVIFSNGMQWKEIRRFSIMTLRTFGMGKRTIEDRIQEEAQCLVEELRKSKGAPFDPTFILGCAPCNVICSIIFQNRFDYKDPTFLNLMHRFNENFRLFSSPWLQVCNTFPAIIDYFPGSHNQVLKNFFYIKNYVLEKVKEHQESLDKDNPRDFIDCFLNKMEQEKHNPQSEFTLESLVATVTDMFGAGTETTSTTLRYGLLLLLKHVDVTAKVQEEIERVIGRNRSPCMKDRSQMPYTDAVVHEIQRYIDLVPTNLPHLVTRDIKFRNYFIPKGTNVIVSLSSILHDDKEFPNPEKFDPGHFLDERGNFKKSDYFMPFSAGKRICAGEALARTELFLFFTTILQNFNLKSLVDVKDIDTTPAISGFGHLPPFYEACFIPVQRADSLSSHL
Km [2]: 232.83 ± 51.33 µM
Vmax [2]: 683.37 ± 94.05 pmol/min/mg protein

B2: Cyp2b1 (Rattus norvegicus) (protein)
chain: MEPTILLLLALLVGFLLLLVRGHPKSRGNFPPGPRPLPLLGNLLQLDRGGLLNSFMQLREKYGDVFTVHLGPRPVVMLCGTDTIKEALVGQAEDFSGRGTIAVIEPIFKEYGVIFANGERWKALRRFSLATMRDFGMGKRSVEERIQEEAQCLVEELRKSQGAPLDPTFLFQCITANIICSIVFGERFDYTDRQFLRLLELFYRTFSLLSSFSSQVFEFFSGFLKYFPGAHRQISKNLQEILDYIGHIVEKHRATLDPSAPRDFIDTYLLRMEKEKSNHHTEFHHENLMISLLSLFFAGTETSSTTLRYGFLLMLKYPHVAEKVQKEIDQVIGSHRLPTLDDRSKMPYTDAVIHEIQRFSDLVPIGVPHRVTKDTMFRGYLLPKNTEVYPILSSALHDPQYFDHPDSFNPEHFLDANGALKKSEAFMPFSTGKRICLGEGIARNELFLFFTTILQNFSVSSHLAPKDIDLTPKESGIGKIPPTYQICFSAR
Km [3]: 171.70 ± 39.46 µM
Vmax [3]: 35.20 ± 6.62 pmol/min/mg protein

Reference: publication PMC7700423, “Differential Effects of 1α,25-Dihydroxyvitamin D3 on the Expressions and Functions of Hepatic CYP and UGT Enzymes and Its Pharmacokinetic Consequences In Vivo” (Pharmaceutics, 2020)
